Laboratory results as given in patent US8664217B2, “Benzodiazepine compound and pharmaceutical composition” (Otsuka Pharmaceutical Co., Ltd., priority 2008, dated 2014).

Compound: CCN1C(=O)C(C)(C)C(=O)N(C)c2cc(OCCCN(CCc3cccnc3)C(=O)c3ccncc3)ccc21 [Example 459, N-[3-(1-ethyl-3,3,5-trimethyl-2,4-dioxo-2,3,4,5-tetrahydro-1H-benzo[b][1,4]diazepin-7-yloxy)propyl]-N-(2-pyridin-3-ylethyl)isonicotinamide]
- melting point: 88.1 to 92.2 °C
